Test results from patent US20260265279A1, “RHO-ASSOCIATED PROTEIN KINASE INHIBITOR AND PREPARATION AND USE THEREOF” (Shanghai Zhimeng Biopharma, Inc, priority 2022, published 2026).

Experiments:
[1] = biological target: T1, ROCK2 (Homo sapiens, UniProt O75116); test: Kinase IC50 assay, HTRF kinEASE STK S2 kit, ROCK2; format: biochemical; details: ATP 1 μM, 2.5 ng/well enzyme, 120 min
T1 construct: purchased Invitrogen PV3759
Description: (§1) Kinase IC50 assay was performed using the kinase assay kit HTRF kinEASE STK S2 kit (Cat #62ST2PEC, Cisbio). Kinases ROCK1 (Cat #PV3691) and ROCK2 (Cat #PV3759) were purchased from Invitrogen.
(§2) The working solution required for the assay was prepared with the appropriate reagents as described in the kinase assay kit instructions:
(§3) 1 mL of 1× Kinase Buffer contains 200 μL 5× Enzyme buffer, 5 μL 1M MgCl2 (Cat.M8266, Sigma), 1 μL 1M DTT (Cat.D5545, Sigma), 794 μL ddH2O.
(§4) The specific concentrations of STK-biotin substrate and ATP are shown in Table A. STK-biotin substrate and ATP were diluted with 1× kinase buffer to 2.5 times of the reaction concentration.
(§5) Concentrations of ROCK1/ROCK2 are shown in Table A. 5×ROCK1/ROCK2 Kinase working solution was prepared with 1× Kinase Buffer.
(§6) See Table A for the concentrations of Streptavidin-XL665 and STK Antibody-Cryptate in the reaction. 2× Streptavidin-XL665 and STK Antibody-Cryptate Working Solutions were prepared 5 minutes prior to the end of the kinase reaction using Detection Buffer from the kit.
(§7) A 100 μM compound mother solution was prepared using 1× kinase buffer containing 2.5% DMSO, and the mother solution was diluted 4-fold stepwise with the above DMSO-containing kinase buffer to obtain nine different concentrations of the compound solutions to be tested. In addition to the test compound wells, positive control wells (containing all reagents except the compounds) and negative control wells (containing all reagents except the compounds and kinase) were set up. 4 μL of the test compound solution was added to all reaction wells except the control wells and 4 μL of 2.5% DMSO solution was added to the control wells. Then 4 μL of previously prepared substrate and ATP working solution were added to all wells and mix well. Then, 2 μL/well of 5×ROCK1/ROCK2 kinase working solution (containing 2.5 ng ROCK1/ROCK2 kinase) was added to all reaction wells except negative control wells, and the negative control wells were made up to volume with 2 μL of 1× kinase buffer. Mix well, seal with plastic film and incubate at room temperature for 2 hours. Start preparing the assay solution 5 minutes before the end of the kinase reaction. After the end of the kinase reaction, 10 μL of prepared Streptavidin-XL665 and STK Antibody-Cryptate working solution were added to all reaction wells, the plates were sealed and mixed well, and then incubated at room temperature for 1 hour. Finally, the fluorescence signal was detected by SpectraMax i3x Multi-Mode Reader (Molecular Devices) (excitation wavelength is 320 nm, emission wavelength is 665 nm and 615 nm).
(§8) The inhibition rate in each well was calculated from the fluorescence intensity values of each well:
(§9) ER Emission Ratio, Emission light ratio=fluorescence intensity at 665 nm/fluorescence intensity at 615 nm;
(§10) ERcompound, ER of test compound wells; ERvehicle, ER of solvent (positive) control wells, ERblank, ER of blank (negative) control wells.
(§11) The graphs were plotted using the software GraphPad Prism 6.0, while the half inhibitory concentration (IC50) of each compound to be tested was obtained by fitting with Prism 6.0.

[2] = biological target: T2, ROCK1 (Homo sapiens, UniProt Q13464); test: Kinase IC50 assay, HTRF kinEASE STK S2 kit, ROCK1; format: biochemical; details: ATP 1.5 μM, 2.5 ng/well enzyme, 120 min
T2 construct: purchased Invitrogen PV3691
T2 sequence (Q13464 1-535 limits assumed): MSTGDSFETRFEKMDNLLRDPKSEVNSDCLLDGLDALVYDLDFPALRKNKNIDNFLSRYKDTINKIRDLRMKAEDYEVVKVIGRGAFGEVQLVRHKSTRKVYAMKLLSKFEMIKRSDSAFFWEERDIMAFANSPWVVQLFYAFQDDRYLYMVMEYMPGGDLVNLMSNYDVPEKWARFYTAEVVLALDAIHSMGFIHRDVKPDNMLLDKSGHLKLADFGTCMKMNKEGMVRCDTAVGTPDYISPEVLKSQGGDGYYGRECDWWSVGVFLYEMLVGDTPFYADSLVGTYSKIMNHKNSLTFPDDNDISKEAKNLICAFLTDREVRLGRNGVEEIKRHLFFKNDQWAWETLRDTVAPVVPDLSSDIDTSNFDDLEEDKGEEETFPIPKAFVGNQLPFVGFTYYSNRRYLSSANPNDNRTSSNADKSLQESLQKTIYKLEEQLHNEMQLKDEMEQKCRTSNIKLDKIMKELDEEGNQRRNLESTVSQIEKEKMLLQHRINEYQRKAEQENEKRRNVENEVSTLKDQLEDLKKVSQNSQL
Description: as §1, §2, §3, §4, §5, §6, §7, §8, §9, §10, §11

T1 sequence (O75116 5-554 limits assumed): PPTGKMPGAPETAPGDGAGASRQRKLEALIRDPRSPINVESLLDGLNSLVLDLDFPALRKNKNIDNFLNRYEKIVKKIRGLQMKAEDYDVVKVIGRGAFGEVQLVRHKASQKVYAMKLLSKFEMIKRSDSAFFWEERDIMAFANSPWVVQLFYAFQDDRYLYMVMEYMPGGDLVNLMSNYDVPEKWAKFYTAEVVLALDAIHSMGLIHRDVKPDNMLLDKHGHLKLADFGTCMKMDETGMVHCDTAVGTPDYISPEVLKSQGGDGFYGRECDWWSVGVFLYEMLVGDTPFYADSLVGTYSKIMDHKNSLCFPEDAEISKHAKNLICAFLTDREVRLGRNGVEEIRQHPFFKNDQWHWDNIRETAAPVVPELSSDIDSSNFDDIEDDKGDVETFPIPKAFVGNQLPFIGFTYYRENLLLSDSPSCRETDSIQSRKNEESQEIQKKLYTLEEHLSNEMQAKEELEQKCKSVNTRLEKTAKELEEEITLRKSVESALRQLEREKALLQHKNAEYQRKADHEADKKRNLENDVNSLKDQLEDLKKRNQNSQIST

SMILES | IC50 [1] | IC50 [2]
Cn1c(C#Cc2nccc(Nc3ccc4[nH]ncc4c3)n2)ccc1C(=O)N1CC(F)(F)C1 [Compound A2] | 0.303 µM | 3.9 µM
Cc1nc(C#Cc2ccc(C(=O)N3CC(F)(F)C3)n2C)nc(Nc2ccc(-c3cn[nH]c3)cc2)c1C [Compound A6] | 0.202 µM | 35.2 µM
Cn1c(C#Cc2ncc(C#N)c(Nc3ccc(-c4cn[nH]c4)cc3)n2)ccc1C(=O)N1CC(F)(F)C1 [Compound A8] | 3.49 µM | > 100 µM
Cn1c(C#Cc2ncnc(Nc3ccc(-c4cn[nH]c4)cc3)n2)ccc1C(=O)N1CC(F)(F)C1 [Compound A9] | 0.702 µM | > 100 µM
Cc1n[nH]c(C)c1-c1ccc(Nc2ccnc(C#Cc3ccc(C(=O)N4CC(F)(F)C4)n3C)n2)cc1 [Compound A14] | 0.585 µM | > 100 µM
Cn1c(C#Cc2ncc(F)c(Nc3ccc(-c4c[nH]nc4F)cc3)n2)ccc1C(=O)N1CC(F)(F)C1 [Compound A15] | 0.421 µM | > 100 µM
Cn1nc(C#Cc2nccc(Nc3ccc(-c4cn[nH]c4)cc3)n2)cc1C(=O)N1CC(F)(F)C1 [Compound A17] | 1.06 µM | 50.3 µM
Cn1cc(C#Cc2nccc(Nc3ccc(-c4cn[nH]c4)cc3)n2)cc1C(=O)N1CC(F)(F)C1 [Compound A18] | 2.35 µM | 53.8 µM
O=C(c1ccc(C#Cc2nccc(Nc3ccc(-c4cn[nH]c4)cc3)n2)s1)N1CC(F)(F)C1 [Compound A19] | 50.5 µM | > 100 µM
O=C(c1cccc(C#Cc2nccc(Nc3ccc(-c4cn[nH]c4)cc3)n2)n1)N1CC(F)(F)C1 [Compound A20] | 0.206 µM | > 100 µM
O=C(c1ccc(C#Cc2nccc(Nc3ccc(-c4cn[nH]c4)cc3)n2)nc1)N1CC(F)(F)C1 [Compound A21] | 0.754 µM | > 100 µM
Cc1c(Nc2ccnc(C#Cc3ccc(C(=O)N4CC(F)(F)C4)n3C)n2)ccc2[nH]ncc12 [Compound A22] | 3.59 µM | 40.9 µM
Cn1c(C#Cc2ncc(F)c(Nc3ccc4c(=O)[nH]ccc4c3)n2)ccc1C(=O)N1CC(F)(F)C1 [Compound A27] | 0.274 µM | > 100 µM
O=C(c1ccc(C#Cc2nccc(Nc3ccc(-c4cn[nH]c4)cc3)n2)cc1)N1CC(F)(F)C1 [Compound A28] | 1.1 µM | > 100 µM
O=C(c1cccc(C#Cc2nccc(Nc3ccc(-c4cn[nH]c4)cc3)n2)c1)N1CC(F)(F)C1 [Compound A29] | 2 µM | 57.1 µM
CCn1c(C#Cc2nccc(Nc3ccc(-c4cn[nH]c4)cc3)n2)ccc1C(=O)N1CC(F)(F)C1 [Compound A32] | 0.232 µM | 30.7 µM
Cn1c(C#Cc2nc(Nc3ccc(-c4cn[nH]c4)cc3)c3ccccc3n2)ccc1C(=O)N1CC(F)(F)C1 [Compound A37] | 0.42 µM | > 100 µM
O=C1c2ccc(C#Cc3ncc(F)c(Nc4ccc(-c5cn[nH]c5)cc4)n3)n2CCN1CC(F)(F)F [Compound A38] | 0.445 µM | > 100 µM
Cc1cc(C(=O)N2CC(F)(F)C2)n(C)c1C#Cc1ncc(F)c(Nc2cc(F)c(-c3cn[nH]c3C)cc2F)n1 [Compound A47] | 0.476 µM | > 100 µM

Continued, values first:

IC50 [1] | IC50 [2] | SMILES
0.186 µM | 80 µM | Cc1cnc(C#Cc2ccc(C(=O)N3CC(F)(F)C3)n2C)nc1Nc1ccc(-c2cn[nH]c2)cc1 [Compound A4]
0.091 µM | > 100 µM | Cc1cc(Nc2ccc(-c3cn[nH]c3)cc2)nc(C#Cc2ccc(C(=O)N3CC(F)(F)C3)n2C)n1 [Compound A5]
0.0544 µM | > 100 µM | Cn1c(C#Cc2ncc(F)c(Nc3ccc(-c4cn[nH]c4)cc3)n2)ccc1C(=O)N1CC(F)(F)C1 [Compound A7]
0.0778 µM | > 100 µM | Cn1c(C#Cc2nc3c(c(Nc4ccc(-c5cn[nH]c5)cc4)n2)COC3)ccc1C(=O)N1CC(F)(F)C1 [Compound A10]
0.0867 µM | > 100 µM | CN1Cc2nc(C#Cc3ccc(C(=O)N4CC(F)(F)C4)n3C)nc(Nc3ccc(-c4cn[nH]c4)cc3)c2C1 [Compound A11]
0.199 µM | 32.3 µM | Cc1cc(Nc2ccnc(C#Cc3ccc(C(=O)N4CC(F)(F)C4)n3C)n2)ccc1-c1cn[nH]c1 [Compound A12]
0.0349 µM | 29.6 µM | Cc1[nH]ncc1-c1ccc(Nc2nc(C#Cc3ccc(C(=O)N4CC(F)(F)C4)n3C)ncc2F)cc1 [Compound A16]
0.118 µM | 41.9 µM | O=C(c1ccc(C#Cc2nccc(Nc3ccc(-c4cn[nH]c4)cc3)n2)n1C1CC1)N1CC(F)(F)C1 [Compound A30]
0.0172 µM | > 100 µM | Cc1cc(C(=O)N2CC(F)(F)C2)n(C)c1C#Cc1ncc(F)c(Nc2cc(F)c(-c3cn[nH]c3)c(F)c2)n1 [Compound A40]
0.0724 µM | > 100 µM | Cc1cc(C(=O)N2CC(F)(F)C2)n(C)c1C#Cc1ncc(F)c(Nc2cnc(-c3cn[nH]c3)c(F)c2)n1 [Compound A41]
0.005 µM | 4.93 µM | Cc1cc(C(=O)N2CC(F)(F)C2)n(C)c1C#Cc1ncc(F)c(Nc2ccc(-c3cn[nH]c3)c(F)c2)n1 [Compound A42]
0.0515 µM | 20.6 µM | Cc1cc(C(=O)N2CC(F)(F)C2)n(C)c1C#Cc1ncc(F)c(Nc2cc(F)c(-c3cn[nH]c3C)c(F)c2)n1 [Compound A43]
0.0127 µM | > 100 µM | Cc1cc(C(=O)N2CC(F)(F)C2)n(C)c1C#Cc1ncc(F)c(Nc2ccc(-c3cn[nH]c3C)cc2)n1 [Compound A44]
0.0352 µM | 8.8 µM | Cc1cc(C(=O)N2CC(F)(F)C2)n(C)c1C#Cc1nc(C)c(F)c(Nc2ccc(-c3cn[nH]c3)c(F)c2)n1 [Compound A45]
0.161 µM | > 100 µM | O=C(c1cccc(C#Cc2ncc(F)c(Nc3cc(F)c(-c4cn[nH]c4)cc3F)n2)n1)N1CC(F)(F)C1 [Compound A46]
0.0377 µM | 18.4 µM | Cc1cc(C(=O)N2CC(F)(F)C2)n(C)c1C#Cc1ncc(F)c(Nc2cnc(-c3cn[nH]c3C)cc2F)n1 [Compound A48]
0.0177 µM | 37.4 µM | Cc1cc(C(=O)N2CC(F)(F)C2)n(C)c1C#Cc1ncc(F)c(Nc2cc(F)c(-c3cn[nH]c3)cc2F)n1 [Compound A49]
0.0089 µM | 0.073 µM | Cc1cc(C(=O)N2CC(F)(F)C2)n(C)c1C#Cc1nc2c(c(Nc3cc(F)c(-c4cn[nH]c4)c(F)c3)n1)COC2 [Compound A50]
0.131 µM | > 100 µM | Cc1cc(C(=O)N2CC(F)(F)C2)n(C)c1C#Cc1ncc(F)c(Nc2ccc(-c3cn[nH]c3C)cc2F)n1 [Compound A51]
0.0192 µM | 64 µM | Cn1c(C(=O)N2CC(F)(F)C2)cc(C2CC2)c1C#Cc1ncc(F)c(Nc2cc(F)c(-c3cn[nH]c3)cc2F)n1 [Compound A54]
0.0573 µM | > 100 µM | CC(C)c1cc(C(=O)N2CC(F)(F)C2)n(C)c1C#Cc1ncc(F)c(Nc2cc(F)c(-c3cn[nH]c3)cc2F)n1 [Compound A55]
0.0193 µM | > 100 µM | Cc1cc(C(=O)N2CC(O)C2)n(C)c1C#Cc1ncc(F)c(Nc2cc(F)c(-c3cn[nH]c3)cc2F)n1 [Compound A56]
0.0324 µM | > 100 µM | COC1CN(C(=O)c2cc(C)c(C#Cc3ncc(F)c(Nc4cc(F)c(-c5cn[nH]c5)cc4F)n3)n2C)C1 [Compound A57]
